Measured values: ChEMBL document CHEMBL1140350, “The endocannabinoid system: drug targets, lead compounds, and potential therapeutic applications” (J Med Chem, 2005)

Key:
[1] = target: T1, Fatty-acid amide hydrolase 1 (Homo sapiens, UniProt O00519); assay: Irreversible inhibition of fatty acid amide hydrolase
T1 sequence (O00519 whole entry): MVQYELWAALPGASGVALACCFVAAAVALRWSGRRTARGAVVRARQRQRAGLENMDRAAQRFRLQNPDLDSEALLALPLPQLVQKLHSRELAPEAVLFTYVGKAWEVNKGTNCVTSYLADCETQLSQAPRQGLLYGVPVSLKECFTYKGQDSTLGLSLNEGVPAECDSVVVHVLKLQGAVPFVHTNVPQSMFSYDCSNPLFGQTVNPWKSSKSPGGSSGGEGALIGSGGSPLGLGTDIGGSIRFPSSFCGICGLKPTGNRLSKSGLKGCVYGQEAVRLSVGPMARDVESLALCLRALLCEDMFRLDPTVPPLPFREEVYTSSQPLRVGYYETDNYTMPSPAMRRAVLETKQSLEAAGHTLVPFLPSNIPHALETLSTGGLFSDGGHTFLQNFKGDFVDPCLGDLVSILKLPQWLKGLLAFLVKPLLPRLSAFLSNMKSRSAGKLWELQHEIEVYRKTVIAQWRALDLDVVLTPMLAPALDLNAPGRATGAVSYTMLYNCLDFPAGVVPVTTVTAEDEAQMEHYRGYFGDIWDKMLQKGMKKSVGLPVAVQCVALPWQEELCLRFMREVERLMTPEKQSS

[2] = target: T1, Fatty-acid amide hydrolase 1; assay: Inhibitory concentration against fatty acid amide hydrolase
Monoglyceride lipase = target: T2, Monoglyceride lipase (Homo sapiens, UniProt Q99685); assay: Inhibitory concentration against monoacylglycerol lipase
T2 sequence (Q99685 whole entry): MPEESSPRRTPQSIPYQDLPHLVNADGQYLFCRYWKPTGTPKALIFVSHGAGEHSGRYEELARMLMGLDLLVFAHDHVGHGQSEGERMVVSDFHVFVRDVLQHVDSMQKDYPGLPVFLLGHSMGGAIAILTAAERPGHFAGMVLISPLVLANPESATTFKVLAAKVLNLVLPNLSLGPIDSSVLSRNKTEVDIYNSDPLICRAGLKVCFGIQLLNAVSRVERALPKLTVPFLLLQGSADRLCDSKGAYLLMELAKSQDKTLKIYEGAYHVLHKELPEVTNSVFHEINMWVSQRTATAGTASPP

[3] = Binding affinity for cannabinoid receptor 2
[4] = target: T3, Fatty-acid amide hydrolase 1 (Mus musculus) (UniProt O08914); assay: Inhibitory potency against fatty acid amide hydrolase activity in mouse brain microsomes in presence of 58 uM anandamide at 160 uM; type: functional; settings: Microsome
T3 sequence (whole entry): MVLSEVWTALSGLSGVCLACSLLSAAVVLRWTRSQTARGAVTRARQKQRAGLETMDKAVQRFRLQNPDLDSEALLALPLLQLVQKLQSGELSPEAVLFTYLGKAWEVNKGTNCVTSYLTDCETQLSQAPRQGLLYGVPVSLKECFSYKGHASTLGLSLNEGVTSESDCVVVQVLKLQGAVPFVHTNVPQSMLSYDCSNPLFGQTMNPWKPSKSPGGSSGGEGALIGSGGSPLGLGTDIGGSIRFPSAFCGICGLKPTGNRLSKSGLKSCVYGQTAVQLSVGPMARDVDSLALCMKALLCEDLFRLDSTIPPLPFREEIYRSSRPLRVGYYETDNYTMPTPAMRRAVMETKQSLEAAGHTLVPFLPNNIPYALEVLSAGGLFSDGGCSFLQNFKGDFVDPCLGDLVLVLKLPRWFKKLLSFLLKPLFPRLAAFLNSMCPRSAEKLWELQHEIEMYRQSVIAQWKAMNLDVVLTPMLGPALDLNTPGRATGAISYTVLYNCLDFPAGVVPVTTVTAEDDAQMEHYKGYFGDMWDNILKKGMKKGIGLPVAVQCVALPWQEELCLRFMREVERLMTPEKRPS

[5] = target: T4, N-acylethanolamine-hydrolyzing acid amidase (Homo sapiens, UniProt Q02083); assay: Inhibitory concentration against N-palmitoylethanolamine acid amidase
T4 sequence (Q02083 whole entry): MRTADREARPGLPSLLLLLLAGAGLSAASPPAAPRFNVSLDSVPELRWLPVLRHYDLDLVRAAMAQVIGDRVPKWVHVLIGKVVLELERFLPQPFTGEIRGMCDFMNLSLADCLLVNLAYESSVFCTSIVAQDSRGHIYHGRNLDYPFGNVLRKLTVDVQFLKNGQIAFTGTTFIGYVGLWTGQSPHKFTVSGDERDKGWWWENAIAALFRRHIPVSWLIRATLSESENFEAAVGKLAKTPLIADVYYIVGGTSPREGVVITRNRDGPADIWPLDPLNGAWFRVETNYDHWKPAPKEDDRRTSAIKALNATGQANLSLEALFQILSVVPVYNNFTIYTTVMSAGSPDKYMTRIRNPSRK

[6] = target: T5, N-acylethanolamine-hydrolyzing acid amidase (Homo sapiens) (UniProt Q02083); assay: Percent inhibition aganist N-palmitoylethanolamine acid amidase at 10 uM
T5 sequence (whole entry): T4 sequence (Q02083 whole entry)

Cannabinoid receptor 1 [7] = target: T6, Cannabinoid receptor 1 (Rattus norvegicus, UniProt P20272); assay: Inhibition of [3H]CP-55940 binding to rat cannabinoid receptor 1
[8] = target: T1, Fatty-acid amide hydrolase 1; assay: Inhibition of fatty acid amide hydrolase; range = 4.1-7 uM
[9] = target: T1, Fatty-acid amide hydrolase 1; assay: Binding affinity for human fatty acid amide hydrolase
[10] = target: T1, Fatty-acid amide hydrolase 1; assay: Binding affinity for fatty acid amide hydrolase
Cannabinoid receptor 1 [11] = target: Cannabinoid receptor 1 (Homo sapiens, UniProt P21554); assay: (§1) Binding affinity for cannabinoid receptor 1
[12] = target: T1, Fatty-acid amide hydrolase 1; assay: Irreversible inhibition of fatty acid amide hydrolase; range=. 5-6 nM
Cannabinoid receptor = Cannabinoid receptor (Homo sapiens, UniProt P34972+P21554); assay: Binding affinity for Cannabinoid receptor; type: protein assay
Cannabinoid receptor 1 [13] = target: T6, Cannabinoid receptor 1; assay: as §1
[14] = target: T1, Fatty-acid amide hydrolase 1; assay: Inhibition of fatty acid amide hydrolase; range =. 23-3 uM
Homo sapiens = species on record: Homo sapiens; assay: Concentration required to inhibit anandamide uptake into human monocytes; type: functional
[15] = target: T1, Fatty-acid amide hydrolase 1; assay: Apparent binding affinity for fatty acid amide hydrolase
Mus musculus = species on record: Mus musculus; assay: Concentration required to inhibit anandamide uptake from the extracellular medium into cells; type: functional, cell-based

T6 sequence (P20272 whole entry): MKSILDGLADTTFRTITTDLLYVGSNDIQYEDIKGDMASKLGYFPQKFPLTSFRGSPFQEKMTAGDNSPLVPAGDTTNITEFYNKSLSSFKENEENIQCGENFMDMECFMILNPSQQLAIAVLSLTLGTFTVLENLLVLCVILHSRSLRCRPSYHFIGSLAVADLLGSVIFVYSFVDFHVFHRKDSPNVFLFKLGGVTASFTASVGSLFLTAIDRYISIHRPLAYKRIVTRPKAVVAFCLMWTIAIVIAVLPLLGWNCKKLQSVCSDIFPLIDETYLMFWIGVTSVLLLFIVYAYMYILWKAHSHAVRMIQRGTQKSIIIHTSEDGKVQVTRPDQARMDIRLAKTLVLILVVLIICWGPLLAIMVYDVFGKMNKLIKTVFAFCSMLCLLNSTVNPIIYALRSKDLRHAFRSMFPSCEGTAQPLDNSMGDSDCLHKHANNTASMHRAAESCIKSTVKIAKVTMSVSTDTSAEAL
Sequence of Cannabinoid receptor 1 (Homo sapiens, UniProt P21554) (P21554 whole entry): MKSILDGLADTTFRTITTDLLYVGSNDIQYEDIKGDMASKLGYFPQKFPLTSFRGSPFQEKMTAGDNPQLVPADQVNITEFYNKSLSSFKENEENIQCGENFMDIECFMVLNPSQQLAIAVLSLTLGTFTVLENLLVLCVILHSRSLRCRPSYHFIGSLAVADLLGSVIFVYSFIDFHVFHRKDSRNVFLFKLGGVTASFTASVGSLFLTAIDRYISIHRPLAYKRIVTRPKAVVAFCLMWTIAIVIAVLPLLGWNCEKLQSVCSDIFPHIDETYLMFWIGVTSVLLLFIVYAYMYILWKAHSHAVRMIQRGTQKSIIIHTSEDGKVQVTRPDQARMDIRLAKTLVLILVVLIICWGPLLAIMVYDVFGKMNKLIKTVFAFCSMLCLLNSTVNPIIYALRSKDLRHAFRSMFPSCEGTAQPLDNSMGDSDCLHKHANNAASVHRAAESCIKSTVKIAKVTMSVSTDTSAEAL

## CCCCCCCCCCCCS(=O)(=O)F [DODECANESULFONYL FLUORIDE]
[1]
  IC50: 3 nM

## O=C(CCCCCCc1ccccc1)c1nc2ncccc2o1
[2]
  IC50: 2.1 nM

## CCCCC/C=C\C/C=C\C/C=C\C/C=C\CCC(C)C(=O)OCC(O)CO (stereo not drawn)
[2]
  IC50: ~11000 nM
Monoglyceride lipase
  IC50: ~11000 nM

## CCCCCc1cc(O)c2c(c1)OC(C)(C)[C@@H]1CCC(C)=C[C@@H]21 [DRONABINOL]
[3]
  Ki: 20 nM
[4]
  inhibition: 31%

## CCCCC/C=C\C/C=C\CC/C=C\CCCC(=O)NCCc1ccc(O)c(O)c1
[2]
  IC50: 19000 nM

## CCCCCCCCCCCCCCCNC(=O)C1CCCCC1 [CYCLOHEXANECARBOXYLIC ACID PENTADECYLAMIDE]
[5]
  IC50: 4500 nM
[6]
  inhibition: 66%

## CCCCCCCC/C=C\CCCCCCCC(N)=O [OLEAMIDE]
Cannabinoid receptor 1 [7]
  Ki: 1140 nM

## CCCCCCCCCCCCCCCNC(=O)c1ccccc1
[6]
  inhibition: 61%

## O=C1O/C(=C/Br)CCC1c1cccc2ccccc12 (stereo not drawn) [BROMOENOL LACTONE]
[1]
  IC50: 800 nM

## CCCCC/C=C\C/C=C\C/C=C\C/C=C\CCCC(=O)NCC(=O)O [ARACHIDONOYL GLYCINE]
[8]
  IC50: 7000 nM

## O=C(CCCCCc1ccccc1)c1nc2ncccc2o1
[9]
  Ki: 0.094 nM

## CCCCCCCCCCCCCCCNC(=O)CCO
[5]
  IC50: 54000 nM

## CCCCCCCC/C=C\CCCCCCCC(=O)C(F)(F)F
[10]
  Ki: 1.2 nM

## CCCCCCCCCCC[C@@H](C[C@@H]1OC(=O)[C@H]1CCCCCC)OC(=O)[C@H](CC(C)C)NC=O [ORLISTAT]
Cannabinoid receptor 1 [11]
  IC50: ≤ 100 nM

## CCCCCCCCCCCCCCCCOC(=O)CC [HEXADECYLPROPIONATE]
[5]
  IC50: 32000 nM

## CCCCC/C=C\C/C=C\C/C=C\C/C=C\CCCC(=O)[CH-][N+]#N
[12]
  IC50: 6 nM

## CCCCCCCC/C=C\CCCCCCC(C)C(=O)c1nc2ncccc2o1 (stereo not drawn)
[10]
  Ki: 9.1 nM

## CCCCCCCCCCCCCCCCCCS(=O)(=O)F [OCTADECANESULFONYL FLUORIDE]
[1]
  IC50: 4 nM

## Cc1c(C(=O)c2cccc3ccccc23)c2cccc3c2n1[C@H](CN1CCOCC1)CO3 [WIN-552122]
[3]
  Ki: 1.8 nM

## CCCCCC[C@@H](C)OC(=O)CC(=O)CBr
Cannabinoid receptor
  Ki: 800 nM

## CCCCC/C=C\C/C=C\C/C=C\C/C=C\CCCC(=O)OCCO
[2]
  IC50: > 25000 nM
Monoglyceride lipase
  IC50: 25000 nM

## CCCCC/C=C\C/C=C\C/C=C\C/C=C\CCCCS(=O)(=O)F
[1]
  IC50: 0.1 nM

## CCCCCCCCCCCCCCCC(=O)OC1CCCCC1 [CYCLOHEXYL PALMITATE]
[5]
  IC50: 19000 nM

## CCCCCCC(C)(C)c1ccc([C@@H]2C[C@H](O)CC[C@H]2CCCO)c(O)c1 [CP-55940]
[3]
  Ki: 2.6 nM

## CCCCC/C=C\C/C=C\C/C=C\C/C=C\CCCCOC(CO)CO
Cannabinoid receptor 1 [13]
  Ki: 21 nM

## CCCCCCCCCCCCCCCNC(=O)COC(C)=O [ACETIC ACID PENTADECYLCARBAMOYLMETHYL ESTER]
[2]
  IC50: 8000 nM

## CCCCC/C=C\C/C=C\C/C=C\C/C=C\CCCC(=O)C(F)(F)F [ARACHIDONYL TRIFLUOROMETHYLKETONE]
[14]
  IC50: 3000 nM

## CCCCCc1cc(O)c2c(c1)OC(C)(C)c1ccc(C)cc1-2
[4]
  inhibition: 46%

## CC(C)(/C=C\C/C=C\C/C=C\C/C=C\CCCC(=O)OCC(O)CO)CCCCC#N (stereo not drawn)
[2]
  IC50: ~11000 nM
Monoglyceride lipase
  IC50: ~11000 nM

## CC(C)(/C=C\C/C=C\C/C=C\C/C=C\CCCC(=O)OCC(O)CO)CCCCO (stereo not drawn)
[2]
  IC50: ~11000 nM
Monoglyceride lipase
  IC50: ~11000 nM

## O=S(=O)(F)Cc1ccccc1 [PHENYLMETHYLSULFONYLFLUORIDE]
[1]
  IC50: 13000 nM

## CCCCC/C=C\C/C=C\C/C=C\C/C=C\CCCC(=O)NCCc1c[nH]c2ccc(O)cc12
[2]
  IC50: 12000 nM

## C=CCOc1ccc(CN(C/C=C/c2ccccc2)CCCC)cc1
Homo sapiens
  IC50: 90 nM

## CCCCC/C=C\C/C=C\C/C=C\C/C=C\CCCC(=O)NCCO [ANANDAMIDE]
[3]
  Ki: 370 nM

## CCCCCCCC/C=C\CCCCCCCC(=O)c1nc2ncccc2o1
[10]
  Ki: 2.3 nM

## C=C(C)[C@@H]1CCC(C)=C[C@H]1c1c(O)cc(CCCCC)cc1O
[4]
  inhibition: 66%

## CCCCCCCCCCCCCCCC(=O)NCC(=O)OC
[2]
  IC50: 10000 nM

## CCCCC/C=C\C/C=C\C/C=C\C/C=C\CCCC(=O)c1nc2ncccc2o1
[10]
  Ki: 1 nM

## O=C(CCCCCCCc1ccccc1)C(F)(F)F
[10]
  Ki: 25 nM

## CC(C)c1cccc(C(C)C)c1O [PROPOFOL]
[2]
  IC50: 52000 nM

## CCCCCCCCCCCCCCCC(=O)NC(C)C [HEXADECANOIC ACID ISOPROPYLAMIDE]
[2]
  IC50: 13 nM

## CCCCC/C=C\C/C=C\C/C=C\C/C=C\CCCC(=O)NCCc1ccc(O)c(O)c1 [ARACHIDONOYL DOPAMINE]
Cannabinoid receptor 1 [13]
  Ki: 250 nM
[3]
  Ki: 12 nM

## CCCCC/C=C\C/C=C\C/C=C\C/C=C\CCCC(=O)OCCN
Cannabinoid receptor 1 [13]
  Ki: 1900 nM
[3]
  Ki: 1400 nM

## CCCCCCCc1ccc(CCCCCCC(=O)C(F)(F)F)cc1
[15]
  Ki: 96 nM

## CCCCC/C=C\C/C=C\C/C=C\C/C=C\CCCC(=O)Nc1ccc(O)cc1
Mus musculus
  IC50: ~10000 nM
